Measured values reported in patent publication US4791130A, “Mitomycin derivatives as antileukemia agents” (priority 1986, dated 1988).
≈ marks a conversion by molar mass, not a printed value. Like-named read-outs stand apart in the source and are kept apart here.

What was measured:
Hela S3 cultured cells = assay: Effects upon Hela S3 cultured cells (cell count after 72 hours); format: cell-based; details: Homo sapiens
Experimental: Table 3 indicates the effects of typical Compounds (I) against Hela S3 culture cells In this Table, IC50 denotes the concentration of the test compound capable of reducing the number of the cells to 50% of the number of untreated cells.
The experiment was carried out in the following manner:
Cultured cells of Hela S3 were added to a MEM medium containing 10% (V/V) of bovine fetal serum and […] of glutamine to obtain a cell suspension of 3×10^4 cells/ml. The cell suspension was poured into each well (1 ml/well) of a multiplate having 24 wells for culturing at 37° C. in an incubator containing carbon dioxide (5%) and air (95%). After 24 hours, samples were dissolved or suspended in PBS, ethanol or dimethylsulfoxide were added to the medium at different concentrations,followed by culturing at 37° C. for 72 hours in the same incubator.
An aspirator was used to collect the medium from each well. The surface of each medium was washed by added PBS (1 ml) gently, and then PBS was sucked out. PBS containing trypsin (0.05%) and EDTA (0.02%) was poured into each well. After pipetting, the number of the cells in each suspension was counted by the use of a micro-cell counter (commercial product of Toa Iyo Denshi K.K., Japan). By reference to a curve showing the concentration vs. the number of the cells, IC50 (concentration of the sample capable of reducing the number of the cells to 50% on the basis of the number of control untreated cells) was measured.

in vivo [1] = details: mouse, ip, ddy mice, single abdominal administration, 14 days observation, Behrens-Korber's method
From the text: (§1) The test compound was abdominally administered once to ddy mice, each group consisting of 5 animals.

Sarcoma 180 solid tumour = format: in vivo, ddy mouse; details: ddy mice, LD50 abdominal, ED50 single tail vein dose, tumour volume 7 days after implantation
From the text: (§2) In this table, C.I. denotes chemotherapeutic index, calculated as (LD50)/(ED50), wherein LD50 denotes the value of acute toxity, and ED50 denotes the dose of a sample which is capable of reducing the volume of Sarcoma 180 solid tumour to 50% of the corresponding volume of the solid tumour of untreated group.
as §1
(§3) 5×10^6 cells of Sarcoma 180 solid tumour were abdominally implanted into a ddy mouse. After 7 days, the cells were collected from the acsites fluid. The cells were washed once with physiological saline under sterile conditions and suspended in physiological saline to obtain a cell suspension containing 5×10^7 cells/ml, of which 0.1 ml was implanted into a ddy mouse (body weight 20±2 g) under the skin of the right armpit. The test compound was dissolved in physiological saline or the same solution containing Tween 80. 24 hours after implantation of the tumour cells, 0.1-0.2 ml of the solution containing the test compound was administered to the vein at the tail of each animal of the test group consisting of 5 animals. 7 days after the implantation, the major axis (a) and minor axis (b) of the tumour were measured to calculate the volume of the tumour as "a"×"b^2 "/2. The antitumour effect was indicated by T/C which is the ratio of the tumour volume in the test animals to the corresponding volume of the control (untreated) animals.
(§4) T/C ratios and the dose were respectively plotted on the ordinate using an arithmetic scale and on the abscissa using a logarithmic scale, the relationship between the dosage and the T/C ratio being converted to a straight line by the least squares method. From the straight tropic line thus-obtained, the dose corresponding to a T/C=0.5 viz. ED50 was determined.

in vivo [2] = details: mouse, ip
From the text: as §2, §3, §4
Sarcoma 180 solid tumour cells (5×10^6) were subcutaneously implanted into the skin under the right armpit of each mouse (body weight 20±2 g) of a group consisting of 5 male mice (ddy strain). 24 hours later, a test compound was intraperitoneally administered to each animal. 4 days later, blood (0.02 ml) was collected from the suborbital plexus vein of each tumour-carrying animal. The collected sample of blood was dispersed in 9.98 ml of Cell-kit Seven solution. One drop of saponin solution was added to the sample to dissolve erythrocytes and then a microcell counter was used to measure the number of leucocytes. On graph paper, the number of leucocytes was plotted on the ordinate using an arithmetic scale, and the dosage was plotted on the abscissa using a logarithmic scale to plot the relationship of the dosage to the number of peripheral leucocytes, from which the value of WBC4000, viz. a value capable of giving 4000 peripheral leucocytes (about half of the corresponding value in normal mice) per mm^3, was obtained.

Row | SMILES | IC50 (Hela S3 cultured cells; HeLa S3, 72 h) [ng/mL] | LD50 at 336 h (in vivo [1]) [mg/kg] | C.I. (chemotherapeutic index, LD50/ED50) (Sarcoma 180 solid tumour) | selectivity ratio (in vivo [2]) | IC50 (Hela S3 cultured cells; Hela S3 cells, 72 hours at 37° C., concentration reducing cell number to 50% of untreated, read-out: IC50) [ng/mL]
1 | CO[C@@]12[C@H](CO)C3=C(C(=O)C(C)C(=NOCC(C)C)C3=O)N1C[C@@H]1N[C@@H]12 (stereo partly drawn) [Example 7, [1aS-(1aα, 8β, 8aα, 8bα)]-8-hydroxymethyl-6-[(isobutyloxy)imino] -8a-methoxy-5-methyl-1,1a, 2,5,6,8,8a,8b-octahydro-azirino [2',3':3,4]pyrrolo[1,2-a] indole-4,7-dione] | 3 (≈ 0.00826 µM) | – | – | – | –
2 | CCCCON=C1C(=O)C2=C(C(=O)C1C)N1C[C@@H]3N[C@@H]3[C@]1(OC)[C@@H]2COC(N)=O (stereo partly shown) [Example 4] | 6 (≈ 0.0148 µM) | 18.8 | 2.7 | 0.9 | –
3 | CON=C1C(=O)C2=C(C(=O)C1C)N1C[C@@H]3N[C@@H]3[C@]1(OC)[C@@H]2COC(N)=O (stereo partly drawn) [Example 1, [1aS-(1aα,8β,8aα,8bα)]-8-{[(aminocarbonyl)oxy]methyl}-8a-methoxy-6-[(methoxy)imino]-5-methyl-1,1a,2,5,6,8,8a,8b-octahydro-azirino-[2',3':3,4]pyrrolo[1,2-a]indole-4,7-dione] | 12 (≈ 0.0329 µM) | 37.5 | 0.7 | 0.5 | –
4 | CO[C@@]12[C@H](COC(N)=O)C3=C(C(=O)C(C)C(=NOCC(C)C)C3=O)N1C[C@H]1[C@@H]2N1C (stereo partly drawn) [Example 5, [1aS-(1aα, 8β, 8aα, 8bα)]-8-{[(aminocarbonyl)oxy]methyl}-1,5-dimethyl-6-[(isobutyloxy)imino]8a-methoxy-1,1a,2,5,6,8,8a,8b-octahydro-azirino [2',3': 3,4]pyrrolo[1,2-a]indole-4,7-dione] | – | 60 | 3.4 | 1.4 | –
5 | CC(C)CON=C1C(=O)C2=C(C(=O)C1C)N1C[C@H]3[C@H](N3C)[C@]1(O)[C@H]2COC(N)=O (stereo partly shown) [Example 6] | 30 (≈ 0.0738 µM) | – | – | – | –
6 | CCC(C)ON=C1C(=O)C2=C(C(=O)C1C)N1C[C@@H]3N[C@@H]3[C@]1(OC)[C@@H]2COC(N)=O (stereo partly shown) [Example 3] | 1 (≈ 0.00246 µM) | 18.8 | 3.1 | 2.4 | –
7 | CO[C@@]12[C@H](COC(N)=O)C3=C(C(=O)C(C)C(=NOCC(C)C)C3=O)N1C[C@@H]1N[C@@H]12 (stereo partly drawn) [Example 2, [1aS-(1aα, 8β, 8aα, 8bα)]-8-{[(aminocarbonyl)oxy]methyl}-6-[(isobutyloxy)imino]-8a-methoxy-5-methyl1,1a,2,5,6,8,8a,8b-octahydro-azirino[2',3':3,4]pyrrolo[1,2-a]indole-4,7-dione] | 3 (≈ 0.00738 µM) | 18.8 | 3.6 | 1.9 | –
8 | CO[C@@]12[C@H](COC(N)=O)C3=C(C(=O)C(C)=C(N)C3=O)N1C[C@@H]1N[C@@H]12 [Mitomycin C, reference compound] | – | – | – | – | 4 (≈ 0.012 µM)
